Assays:
MYC target genes = test: Total RNA sequencing with Gene Set Enrichment Analyses; format: cell-based; settings: total RNA-sequence 24 hours post-drug treatment, PEL cells
Description: FIGS. 1A-H. Viral protein sequence based cancer drug. (FIG. 1A) Discovery of hijacking transcription machinery in KSHV reactivating cells (Chen et al., J. Virol 2017). […] (FIG. 1B) Reporter assay. KSHV ORF50 overexpression inhibits MYC activation. (FIG. 1C) Chromatin immunoprecipitation with Mass Spectrometry. Proteins inducibly interact with both ORF50 and RNA polII are shown. […] (FIG. 1E) Mapping of interacting domain. GST-pull down was performed to identify NCoA2 binding domains. Purified NCoA2 was made from recombinant baculovirus infected cells and KSHV ORF50 deletion proteins were made in E. coli. Peptides are then generated as TAT-fusion for cell penetration. (FIG. 1F) ChIP-seq and RNA-seq. ChIP-seq was performed to identify NCOA2 target genes in primary effusion lymphoma cells. NCoA2 localization is highly associated with active genes and localizes with RNA pol II at enhancer regions. […] The qRT-PCR was performed with specific primers. (FIG. 1H) Gene set enrichment analyses (GSEA). […] Forty-eight hours later, live cells were measured by applying MTS. […]
Thiol(SH)-linked alkylation for the metabolic sequencing of RNA (SLAM seq), an orthogonal-chemistry-based RNA sequencing technology detects 4-thiouridine (s4U) incorporation in RNA species at single-nucleotide resolution. […] IGV viewer was used to visualize sequence reads at MYC region (Chr. 8). […]

activated CD3 T cells = test: Cytokine production by anti-CD3 stimulated PBMCs (Luminex 10 plex); format: cell-based, human; settings: 32 μM, 48 hours, vs untreated and control peptide-treated cultures
Description: The effect of the peptide on cytokine production by human lymphoctyes were studied by an in vitro culture system. PBMCs were stimulated with anti-CD3 antibody in the presence of PBS, MBK50 (32 μM) or Mutant peptide (32 μM) in duplicates for 48 hours. The supernatant was recovered and assayed for 10 common cytokines 4-1(3, IL-2, IL-4, IL-5, IL-6, IL-8, IL-10, GM-CSF, IFNγ, TNFα) with Luminex using human 10 plex beads assay kit (Invitrogen).

MYC = test: qRT-PCR of MYC expression; format: cell-based; settings: qRT-PCR with specific primers
Description: FIGS. 1A-H. Viral protein sequence based cancer drug. (FIG. 1A) Discovery of hijacking transcription machinery in KSHV reactivating cells (Chen et al., J. Virol 2017). […] (FIG. 1B) Reporter assay. KSHV ORF50 overexpression inhibits MYC activation. (FIG. 1C) Chromatin immunoprecipitation with Mass Spectrometry. Proteins inducibly interact with both ORF50 and RNA polII are shown. […] (FIG. 1E) Mapping of interacting domain. GST-pull down was performed to identify NCoA2 binding domains. Purified NCoA2 was made from recombinant baculovirus infected cells and KSHV ORF50 deletion proteins were made in E. coli. Peptides are then generated as TAT-fusion for cell penetration. (FIG. 1F) ChIP-seq and RNA-seq. ChIP-seq was performed to identify NCOA2 target genes in primary effusion lymphoma cells. NCoA2 localization is highly associated with active genes and localizes with RNA pol II at enhancer regions. […] The qRT-PCR was performed with specific primers. (FIG. 1H) Gene set enrichment analyses (GSEA). RNA sequencing was performed with peptide-treated PEL cells. […] (FIG. 1I) The peptide drug. Wt peptide or mutant peptide was incubated in culture media. Forty-eight hours later, live cells were measured by applying MTS. Cell viability was compared with no-treated samples. No treated sample was set as 1.

[1] = system: monocyte-derived dendritic cells; test: Monocyte-derived dendritic cell live/dead staining and culture images; format: cell-based, human
Description: FIG. 14. Effect of MBK50 on CD14+ monocytes. FIG. 14(A) A scheme of the experimental procedure. Monocyte-derived dendritic cells were prepared from magnetic beads sorted CD14+ cells (from PBMC of a healthy donor) after culture for 4 days in the presence of GM-CSF+IL-4 (each 50 ng/ml). Cells were washed and cultured at 1×10^6/ml in a 96 well plate (200 μl/well in triplicates) without or with LPS (100 ng/ml), poly I:C (10 μg/ml), or sCD40L (1 μg/ml) in the presence of MBK50 (16 or 32 μM) or mutant peptide (32 μM) for 2 days. Live cells were determined using live/dead staining followed by flow cytometry analysis. FIG. 14(B) A representative flow profile with the gating strategy for live cells is shown. FIG. 14(C) Averages percentage of live cells for each culture condition are shown. *p<0.05, **p<0.01, ***p<0.001, ****p<0.0001
FIG. 15. Representative images of monocyte derived dendritic cells (MDCs) from two human healthy donors after treatment with MBK50, mutant peptide, or PBS for two days in U-bottom 96 well culture. The diameter of the ring approximately corresponds to the cell volume/numbers in each well.
Similar experiments were also performed with monocyte-derived dendritic cells as a model of human dendritic cells. […] Live cells were determined as shown above using live/dead staining.

LSSILQGLYQLDT [MBK50]
GSEA of MYC target genes (MYC target genes): highest enrichment scores with zero false discovery rate | GSEA of MYC target genes (MYC target genes; listed as Wt-peptide): enrichment of MYC-target gene down-regulation | cytokine levels in supernatant, all detected except IL-10 and TNFα (activated CD3 T cells): significantly reduced | MYC expression (MYC): Down modulation | percentage of live cells ([1]; 16 or 32 μM, 2 days, PBS, LPS, sCD40L conditions, vs control peptide or PBS): significantly reduced | appearance of MDCs in culture ([1]; two days, U-bottom 96 well culture): not clumped and were more spread and adhesive
